Experimental data from PMC4791960 (European journal of medicinal chemistry, 2011).

Tests used:
[1] = biological target: α7 nAChR (Rattus norvegicus, UniProt Q05941); assay: [3H]-methyllycaconitine competition binding on rat hippocampal membranes; conditions: for Ki: read-out: α7 Ki, [3H]-methyllycaconitine, rat hippocampal membranes; for interaction with α7 nAChR: in words
[2] = biological target: α4β2 nAChR (Rattus norvegicus, UniProt P09483+P12390); assay: [3H]-epibatidine competition binding on rat cortical membranes; conditions: tested at 5 μM, ± standard error
[3] = biological target: α1βγδ muscle-type nicotinic receptors (Homo sapiens, UniProt P02708+P07510+Q07001); assay: [3H]-epibatidine competition binding on TE-671 cellular membranes; conditions: tested at 5 μM, ± standard error
[4] = biological target: α3β4 ganglion-type nicotinic receptors (Homo sapiens, UniProt P30926+P32297); assay: [3H]-epibatidine competition binding on SH-SY5Y cellular membranes
[5] = tested on: AChBP from Bt; assay: Dissociation constants with AChBP from Bulinus truncatus; format: binding; conditions: compound 2 vs compound 3 (OH to OCH3)
[6] = tested on: AChBP from Ac; assay: Dissociation constants with AChBP from Aplysia californica; format: binding; conditions: compound 2 vs compound 3 (OH to OCH3)
[7] = biological target: rat α7 nAChR (Rattus norvegicus, UniProt Q05941); assay: Patch-clamp electrophysiology in rat α7 nAChR; format: cell-based

5-(2-Furyl)spiro[1,3-dihydro-1,4-diazepine-2,3′-quinuclidine]-7-ol [Compound 2g]
Ki [1]: 150 nM | α4β2 percent inhibition of control radioligand binding [2]: 14 ± 3%

5-(2-Methoxyphenyl)spiro[1,3-dihydro-1,4-diazepine-2,3′-quinuclidine]-7-ol [Compound 2b]
Ki [1]: 110 nM | α4β2 percent inhibition of control radioligand binding [2]: 7 ± 1%

5-(4-Methoxyphenyl)spiro[1,3-dihydro-1,4-diazepine-2,3′-quinuclidine]-7-ol [Compound 2d]
α1βγδ percent inhibition of control radioligand binding [3]: 38 ± 5% | Ki [1]: 42 nM | α4β2 percent inhibition of control radioligand binding [2]: 42 ± 14% | α3β4 percent inhibition of control radioligand binding ([4]; tested at 5 μM, [3H]-epibatidine, SH-SY5Y cellular membranes, ± standard error): 63 ± 0.4%

5-Phenylspiro[1,3-dihydro-1,4-diazepine-2,3′-quinuclidine]-7-ol [Compound 2a]
Ki [1]: 140 nM | α4β2 percent inhibition of control radioligand binding [2]: 15 ± 1%

COc1ccc(/C=C2\CCCN=C2c2cccnc2)c(OC)c1 [Compound 2, 3-(2,4-dimethoxybenzilidene)-anabaseine]
decrease in Kd value (affinity) vs compound 3, Bt [5]: 2.5 fold | loss in affinity vs compound 3, Ac [6]: 110 fold

C1=NCC2(CN3CCC2CC3)NC=C1c1ccccc1 (stereo not shown) [Compound 2h, 6-phenylspiro[1,3-dihydro-1,4-diazepine-2,3′-quinuclidine]]
interaction with α7 nAChR [1]: do not demonstrate any interaction

O=C1NCC2(CN3CCC2CC3)NC(=O)C1c1ccccc1 (stereo not shown) [Compound 2i, 6-Phenylspiro[1,4-diazepane-2,3′-quinuclidine]-5,7-dione]
interaction with α7 nAChR [1]: do not demonstrate any interaction

COc1cc(O)ccc1/C=C1\CCCN=C1c1cccnc1 [Compound 3, 2-Methoxy-4-OH benzylidene anabaseine, reference compound]
inhibition at 5 µM ([4]; read-out: α3β4 percent inhibition of control radioligand binding): 75 ± 1%

Oc1c(C2=NC3(CN2)CN2CCC3CC2)oc2ccccc12 (stereo not shown) [Compound 3a, 2-(3-Hydroxybenzofuran-2-yl)spiro[1,5-dihydroimidazole-4,3′-quinuclidine]]
EC50 [7]: 600 ± 500 nM | Emax [7]: 53 ± 4.4%

c1ccc(C2=NC3(CN2)CN2CCC3CC2)cc1 (stereo not shown) [Compound 3c]
interaction with α7 nAChR [1]: do not demonstrate any interaction

c1ccc2oc(C3=NC4(CN3)CN3CCC4CC3)cc2c1 (stereo not shown) [Compound 3e, 2-Spiro[1,5-dihydroimidazole-4,3′-quinuclidine]-2-ylbenzo [b]furan]
interaction with α7 nAChR [1]: do not demonstrate any interaction
